How the values were obtained:
common pursiane = assay: Test D common purslane; type: in vivo, Portulaca oleracea; details: Postemergence, 0 to 100 scale
large crabgrass [1] = assay: Test D large crabgrass; type: in vivo, Digitaria sanguinalis; details: Postemergence, 0 to 100 scale
morningglory = assay: Test B pre/postemergence morningglory; type: in vivo, Ipomoea hederacea
Method in brief: (§1)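 Herbicidal effect was estimated by eye on a ten-point control scale after plants spent twelve to sixteen days in a greenhouse following soil or foliar treatment. Foliar sprays targeted plants at one to four leaves; all doses were formulated in a non-phytotoxic solvent with surfactant.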

common groundsel = assay: Test D common groundsel; type: in vivo, Senecio vulgaris; details: Postemergence, 0 to 100 scale
Green foxtail [2] = assay: Test D green foxtail; type: in vivo; details: Rate 250 g/ha; Postemergence; 0 to 100 scale
guineagrass [3] = assay: Test D guineagrass; type: in vivo, Panicum maximum; details: Postemergence, 0 to 100 scale
giant foxtail = assay: Test B pre/postemergence giant foxtail; type: in vivo, Setaria faberii
Method in brief: as §1

pigweed = assay: Test B pre/postemergence pigweed; type: in vivo, Amaranthus retroflexus
Method in brief: as §1

pitted morningglory = assay: Test D pitted morningglory; type: in vivo, Ipomoea lacunosa; details: Preemergence, 0 to 100 scale
Method in brief: (§2)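 Scoring used a 0–100 visual injury scale, with 0 meaning no effect and 100 complete control, assessed 14–21 days after application alongside untreated pots. Preemergence treatments went onto sandy loam surfaces of separately potted seeds within a day of sowing.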

winter wheat [4] = assay: Test E winter wheat; type: in vivo, Triticum aestivum; details: Postemergence
Method in brief: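 Postemergence: 60:40 sandy loam/greenhouse potting mix, 1- to 4-leaf stage. Formulation: solvent plus surfactant. Assessment: visual comparison with untreated controls at ~21–28 days.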

winter barley = assay: Test E winter barley; type: in vivo, Hordeum vulgare; details: Preemergence
wild oat = assay: Test E wild oat; type: in vivo, Avena fatua; details: Preemergence
guineagrass [5] = assay: Test D guineagrass; type: in vivo, Panicum maximum; details: Preemergence, 0 to 100 scale
Method in brief: as §2

common ragweed = assay: Test D common ragweed; type: in vivo, Ambrosia elatior; details: Preemergence, 0 to 100 scale
Method in brief: as §2

winter wheat [6] = assay: Test E winter wheat; type: in vivo, Triticum aestivum; details: Preemergence
Italian ryegrass = assay: Test E Italian ryegrass; type: in vivo, Lolium multiflorum; details: Preemergence
large crabgrass [7] = assay: Test D large crabgrass; type: in vivo, Digitaria sanguinalis; details: Preemergence, 0 to 100 scale
Method in brief: as §2

green foxtail [8] = assay: Test E green foxtail; type: in vivo, Setaria viridis; details: Preemergence
blackgrass = assay: Test E blackgrass; type: in vivo, Alopecurus myosuroides; details: Preemergence
[9] = Rate 16 g/ha, 0 no injury, 100 complete control
[10] = Rate 32 g/ha, 0 no injury, 100 complete control
[11] = Rate 64 g/ha, 0 no injury, 100 complete control
[12] = Rate 125 g/ha, 0 no injury, 100 complete control
[13] = Postemergence, Rate 125 g/ha, scale 0 to 10, 0 is no effect, 10 is complete control
[14] = Postemergence, Rate 250 g/ha, scale 0 to 10, 0 is no effect, 10 is complete control
[15] = Preemergence, Rate 62 g/ha, scale 0 to 10 (0 no effect, 10 complete control)
[16] = Preemergence, Rate 250 g/ha, scale of 0 to 10 where 0 is no effect and 10 is complete control
[17] = Preemergence, Rate 500 g/ha, scale of 0 to 10 where 0 is no effect and 10 is complete control
[18] = Rate 62 g/ha, Postemergence, scale of 0 to 10 where 0 is no effect and 10 is complete control
[19] = Rate 500 g/ha, Postemergence, scale 0 to 10, 0 no effect, 10 complete control
[20] = Rate 31 g/ha, 0 to 100 scale, 0 no effect, 100 complete control
[21] = Rate 62 g/ha, 0 to 100 scale, 0 no effect, 100 complete control
[22] = Rate 125 g/ha, 0 to 100 scale (0 no effect, 100 complete control)
[23] = Postemergence, Rate 125 g/ha, scale of 0 to 10 where 0 is no effect and 10 is complete control
[24] = Postemergence, Rate 250 g/ha, scale 0 to 10, 0 no effect, 10 complete control
[25] = Preemergence, Rate 125 g/ha, scale 0 to 10 (0 no effect, 10 complete control)
[26] = Preemergence, Rate 500 g/ha, scale 0 to 10 (0 no effect, 10 complete control)

CC(C)N(C(=O)n1oc(=O)n(C2(C)CC2)c1=O)c1ccccc1 [Compound 360]
Plant response rating, C. purslane (common pursiane; [9]): 0
Plant response rating, C. purslane (common pursiane; [10]): 0
Plant response rating, C. purslane (common pursiane; [11]): 0
Plant response rating, C. purslane (common pursiane; [12]): 0
Plant response rating, C. purslane (common pursiane; Rate 250 g/ha): 0
Plant response rating Large crabgrass (large crabgrass [1]; [9]): 0
Plant response rating Large crabgrass (large crabgrass [1]; [10]): 80
Plant response rating Large crabgrass (large crabgrass [1]; [11]): 100
Plant response rating Large crabgrass (large crabgrass [1]; [12]): 100
Plant response rating Large crabgrass (large crabgrass [1]; Rate 250 g/ha): 100
Plant response rating, Morningglory (morningglory; [13]): 4
Plant response rating, Morningglory (morningglory; [14]): 4
Plant response rating, Morningglory (morningglory; [15]): 0
Morningglory plant response rating (0 to 10 scale) (morningglory; Preemergence, Rate 125 g/ha): 5
Morningglory plant response rating (morningglory; [16]): 7
Morningglory plant response rating (morningglory; [17]): 10
Morningglory plant response rating (morningglory; [18]): 4
Plant response rating, Morningglory (morningglory; [19]): 5
Plant response rating, Com. groundsel (common groundsel; [11]): 0
Plant response rating, Com. groundsel (common groundsel; [12]): 100
Plant response rating, Com. groundsel (common groundsel; Rate 250 g/ha): 100
Plant response rating, Green foxtail (Green foxtail [2]): 100
Plant response rating, Guineagrass (guineagrass [3]; [9]): 0
Plant response rating, Guineagrass (guineagrass [3]; [10]): 100
Guineagrass plant response rating (guineagrass [3]; [11]): 100
Plant response rating, Guineagrass (guineagrass [3]; [12]): 100
Plant response rating, Guineagrass (guineagrass [3]; Rate 250 g/ha): 100
Plant response rating, Giant foxtail (giant foxtail; [13]): 8
Plant response rating, Giant foxtail (giant foxtail; [14]): 8
Plant response rating, Giant foxtail (giant foxtail; [15]): 10
Giant foxtail plant response rating (0 to 10 scale) (giant foxtail; Preemergence, Rate 125 g/ha): 10
Giant foxtail plant response rating (giant foxtail; [16]): 10
Giant foxtail plant response rating (giant foxtail; [17]): 10
Giant foxtail plant response rating (giant foxtail; [18]): 8
Plant response rating, Giant foxtail (giant foxtail; [19]): 8
Plant response rating, Redroot pigweed (pigweed; [13]): 0
Plant response rating, Redroot pigweed (pigweed; [14]): 3
Plant response rating, Redroot pigweed (pigweed; [15]): 5
Redroot pigweed plant response rating (0 to 10 scale) (pigweed; Preemergence, Rate 125 g/ha): 5
Redroot pigweed plant response rating (pigweed; [16]): 10
Redroot pigweed plant response rating (pigweed; [17]): 10
Redroot pigweed plant response rating (pigweed; [18]): 0
Plant response rating, Redroot pigweed (pigweed; [19]): 6

CCn1c(=O)on(C(=O)N(c2ccc(F)cc2)C(C)C)c1=O [Compound 107]
Plant response rating, P. morninglory (pitted morningglory; [9]): 0
Plant response rating, P. morninglory (pitted morningglory; [10]): 0
Plant response rating, P. morninglory (pitted morningglory; [11]): 30
Plant response rating, P. morninglory (pitted morningglory; [12]): 30
Plant response rating, P. morninglory (pitted morningglory; Rate 250 g/ha): 75
Plant response rating, P. morninglory (pitted morningglory; Rate 500 g/ha): 100
Plant response rating, Wheat (winter) (winter wheat [4]; [20]): 50
Plant response rating, Wheat (winter) (winter wheat [4]; Rate 62 g/ha, 0 to 100 scale): 40
Plant response rating, Wheat (winter) (winter wheat [4]; Rate 125 g/ha, 0 to 100 scale): 30
Plant response rating, Wheat (winter) (winter wheat [4]; Rate 250 g/ha, 0 to 100 scale (0 no effect, 100 complete control)): 0
Plant response rating, Barley (winter) (winter barley; [20]): 10
Plant response rating, Barley (winter) (winter barley; [21]): 20
Plant response rating, Barley (winter) (winter barley; [22]): 20
Plant response rating, Barley (winter) (winter barley; Rate 250 g/ha, 0 to 100 scale): 15
Plant response rating, Wild oat (wild oat; [20]): 20
Plant response rating, Wild oat (wild oat; [21]): 50
Plant response rating, Wild oat (wild oat; [22]): 60
Plant response rating, Guineagrass (guineagrass [5]; [9]): 65
Plant response rating, Guineagrass (guineagrass [5]; [10]): 75
Plant response rating, Guineagrass (guineagrass [5]; [11]): 100
Plant response rating, Guineagrass (guineagrass [5]; [12]): 100
Plant response rating, Guineagrass (guineagrass [5]; Rate 250 g/ha): 100
Plant response rating, Guineagrass (guineagrass [5]; Rate 500 g/ha): 100
Plant response rating, C. ragweed (common ragweed; [9]): 0
Plant response rating, C. ragweed (common ragweed; [10]): 0
Plant response rating, C. ragweed (common ragweed; [11]): 0
Plant response rating, C. ragweed (common ragweed; [12]): 85
Plant response rating, C. ragweed (common ragweed; Rate 250 g/ha): 100
Plant response rating, C. ragweed (common ragweed; Rate 500 g/ha): 100
Plant response rating, Wheat (winter) (winter wheat [6]; [20]): 0
Plant response rating, Wheat (winter) (winter wheat [6]; [21]): 50
Plant response rating, Wheat (winter) (winter wheat [6]; [22]): 30
Plant response rating, Wheat (winter) (winter wheat [6]; Rate 250 g/ha, 0 to 100 scale): 40
Plant response rating, I. Ryegrass (Italian ryegrass; [20]): 40
Plant response rating, I. Ryegrass (Italian ryegrass; [21]): 55
Plant response rating, I. Ryegrass (Italian ryegrass; [22]): 98
Plant response rating, I. Ryegrass (Italian ryegrass; Rate 250 g/ha, 0 to 100 scale): 95
Plant response rating Large crabgrass (large crabgrass [7]; [9]): 85
Plant response rating Large crabgrass (large crabgrass [7]; [10]): 98
Plant response rating Large crabgrass (large crabgrass [7]; [11]): 100
Plant response rating Large crabgrass (large crabgrass [7]; [12]): 100
Plant response rating Large crabgrass (large crabgrass [7]; Rate 250 g/ha): 100
Plant response rating Large crabgrass (large crabgrass [7]; Rate 500 g/ha): 100
Morningglory plant response rating (morningglory; [23]): 3
Morningglory plant response rating (morningglory; [24]): 3
Morningglory plant response rating (morningglory; [15]): 0
Plant response rating, Morningglory (morningglory; [25]): 0
Plant response rating, Morningglory (morningglory; [16]): 2
Morningglory plant response rating (morningglory; [26]): 7
Morningglory plant response rating (morningglory; [18]): 3
Morningglory plant response rating (morningglory; [19]): 3
Plant response rating, Green foxtail (green foxtail [8]; [20]): 55
Plant response rating, Green foxtail (green foxtail [8]; [21]): 80
Plant response rating, Green foxtail (green foxtail [8]; [22]): 100
Plant response rating, Green foxtail (green foxtail [8]; Rate 250 g/ha, 0 to 100 scale): 95
Plant response rating, Blackgrass (blackgrass; [20]): 30
Plant response rating, Blackgrass (blackgrass; [21]): 60
Plant response rating, Blackgrass (blackgrass; [22]): 85
Plant response rating, Blackgrass (blackgrass; Rate 250 g/ha, 0 to 100 scale): 80
Giant foxtail plant response rating (giant foxtail; [23]): 8
Giant foxtail plant response rating (giant foxtail; [24]): 8
Giant foxtail plant response rating (giant foxtail; [15]): 10
Plant response rating, Giant foxtail (giant foxtail; [25]): 10
Plant response rating, Giant foxtail (giant foxtail; [16]): 10
Giant foxtail plant response rating (giant foxtail; [26]): 10
Giant foxtail plant response rating (giant foxtail; [18]): 8
Giant foxtail plant response rating (giant foxtail; [19]): 8
Redroot pigweed plant response rating (pigweed; [23]): 0
Redroot pigweed plant response rating (pigweed; [15]): 10
Plant response rating, Redroot pigweed (pigweed; [25]): 10
Plant response rating, Redroot pigweed (pigweed; [16]): 10
Redroot pigweed plant response rating (pigweed; [26]): 10
Redroot pigweed plant response rating (pigweed; [18]): 0
Plant response rating, Redroot pigweed (pigweed; Rate 250 g/ha, Postemergence, scale 0 to 10, 0 is no effect, 10 is complete control): 5
Redroot pigweed plant response rating (pigweed; [19]): 8

Reference: patent US6737383B1, “Herbicidal oxadiazolidines” (priority 1999, dated 2004)
